# Measurements taken from ChEMBL document CHEMBL1201862, “PubChem BioAssay data set” (2004).
#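 1) Cells in 96-well plates. 2) Compound, 48 h, 5 concentrations. 3) Linear interpolation between surrounding doses. 4) Unreached endpoint = highest concentration. GI50 marks 50% less growth.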 Activity calls are given as the source filed them. Rule as the data show it: active = GI50 up to about 1.1 µM and inactive = higher.
# Key:
# Assay in all cases: DTP human tumour cell line panel, 48 h
# A549 = test system: A549
# KM12 = test system: KM12
# HCC 2998 = test system: HCC 2998
# SN12C = test system: SN12C
# NCI/ADR-RES = test system: NCI/ADR-RES
# HOP-62 = test system: HOP-62
# U-251 = test system: U-251
# UACC-62 = test system: UACC-62
# NCI-H23 = test system: NCI-H23
# SF-539 = test system: SF-539
# K562 = test system: K562
# Hs-578T = test system: Hs-578T
# CAKI-1 = test system: CAKI-1
# MCF7 = test system: MCF7
# SK-MEL-5 = test system: SK-MEL-5
# RXF 393 = test system: RXF 393
# SK-MEL-28 = test system: SK-MEL-28
# MDA-MB-435 = test system: MDA-MB-435
# CCRF-CEM = test system: CCRF-CEM
# NCI-H460 = test system: NCI-H460
# UACC-257 = test system: UACC-257
# DU-145 = test system: DU-145
# M14 = test system: M14
# OVCAR-5 = test system: OVCAR-5
# SNB-19 = test system: SNB-19
# IGROV-1 = test system: IGROV-1
# Malme-3M = test system: Malme-3M
# HCT-15 = test system: HCT-15
# HL-60 = test system: HL-60
# COLO 205 = test system: COLO 205
# 786-0 = test system: 786-0
# HT-29 = test system: HT-29
# PC-3 = test system: PC-3
# SF-268 = test system: SF-268
# MDA-N = test system: MDA-N
# UO-31 = test system: UO-31
# OVCAR-4 = test system: OVCAR-4
# HOP-92 = test system: HOP-92
# BT-549 = test system: BT-549
# NCI-H522 = test system: NCI-H522
# LOX IMVI = test system: LOX IMVI
# SK-OV-3 = test system: SK-OV-3
# OVCAR-3 = test system: OVCAR-3
# SF-295 = test system: SF-295
# MOLT-4 = test system: MOLT-4
# T47D = test system: T47D
# ACHN = test system: ACHN
# SW-620 = test system: SW-620
# TK-10 = test system: TK-10
# OVCAR-8 = test system: OVCAR-8
# SK-MEL-2 = test system: SK-MEL-2
# MDA-MB-231 = test system: MDA-MB-231
# SR = test system: SR
# HCT-116 = test system: HCT-116
# A498 = test system: A498
# EKVX = test system: EKVX
smiles,measurement,setting,value
CCN(CC)Cc1ccc(Nc2c3ccccc3nc3ccccc23)cc1,GI50,A549,1.28 µM (inactive)
same,GI50,KM12,3.17 µM (inactive)
same,GI50,HCC 2998,1.08 µM (active)
same,GI50,SN12C,2.31 µM (inactive)
same,GI50,NCI/ADR-RES,5.48 µM (inactive)
same,GI50,HOP-62,2.38 µM (inactive)
same,GI50,U-251,2.16 µM (inactive)
same,GI50,UACC-62,1.81 µM (inactive)
same,GI50,NCI-H23,1.99 µM (inactive)
same,GI50,SF-539,1.8 µM (inactive)
same,GI50,K562,1.6 µM (inactive)
same,GI50,Hs-578T,4.86 µM (inactive)
same,GI50,CAKI-1,1.41 µM (inactive)
same,GI50,MCF7,1.71 µM (inactive)
same,GI50,SK-MEL-5,1.71 µM (inactive)
same,GI50,RXF 393,1.72 µM (inactive)
same,GI50,SK-MEL-28,1.61 µM (inactive)
same,GI50,MDA-MB-435,2.04 µM (inactive)
same,GI50,CCRF-CEM,1.82 µM (inactive)
same,GI50,NCI-H460,1.19 µM (inactive)
same,GI50,UACC-257,1.71 µM (inactive)
same,GI50,DU-145,2.37 µM (inactive)
same,GI50,M14,1.77 µM (inactive)
same,GI50,OVCAR-5,2.17 µM (inactive)
same,GI50,SNB-19,1.35 µM (inactive)
same,GI50,IGROV-1,3 µM (inactive)
same,GI50,Malme-3M,1.36 µM (inactive)
same,GI50,HCT-15,1 µM
same,GI50,HL-60,2.79 µM (inactive)
same,GI50,COLO 205,1.71 µM (inactive)
same,GI50,786-0,1.67 µM (inactive)
same,GI50,HT-29,1.91 µM (inactive)
same,GI50,PC-3,1.59 µM (inactive)
same,GI50,SF-268,2.82 µM (inactive)
same,GI50,MDA-N,1.53 µM (inactive)
same,GI50,UO-31,1.9 µM (inactive)
same,GI50,OVCAR-4,2.57 µM (inactive)
same,GI50,HOP-92,2.79 µM (inactive)
same,GI50,BT-549,10.1 µM (inactive)
same,GI50,NCI-H522,1.41 µM (inactive)
same,GI50,LOX IMVI,1.56 µM (inactive)
same,GI50,SK-OV-3,2 µM (inactive)
same,GI50,OVCAR-3,3.03 µM (inactive)
same,GI50,SF-295,2.62 µM (inactive)
same,GI50,MOLT-4,0.955 µM (active)
same,GI50,T47D,4.16 µM (inactive)
same,GI50,ACHN,0.364 µM (active)
same,GI50,SW-620,1.64 µM (inactive)
same,GI50,TK-10,6.14 µM (inactive)
same,GI50,OVCAR-8,3.05 µM (inactive)
same,GI50,SK-MEL-2,2.99 µM (inactive)
same,GI50,MDA-MB-231,1.66 µM (inactive)
same,GI50,SR,2.17 µM (inactive)
same,GI50,HCT-116,1.16 µM (inactive)
same,GI50,A498,3.09 µM (inactive)
same,GI50,EKVX,3.3 µM (inactive)
